Assay results taken from ChEMBL document CHEMBL1129154, “()-SCH 57939: synthesis and pharmacological properties of a potent, metabolically stable cholesterol absorption inhibitor” (1996).

Tests used:
Assay type in all cases: functional, Cricetulus griseus
Cricetinae gen. sp. [1] = assay: Compound was evaluated for the percent reduction in liver cholesterol ester levels in cholesterol fed hamster model at […]
Cricetinae gen. sp. [2] = assay: Compound was evaluated in vivo for the cholesterol lowering activity in hamster model
Cricetinae gen. sp. [3] = assay: Compound was evaluated for the percent reduction in liver cholesterol ester levels in cholesterol fed hamster model at 0.3 mg/kg
Cricetinae gen. sp. [4] = assay: Compound was evaluated for the percent reduction in liver cholesterol ester levels in cholesterol fed hamster model at 1 mg/kg
Cricetinae gen. sp. [5] = assay: Compound was evaluated for the percent reduction in liver cholesterol ester levels in cholesterol fed hamster model at 10 mpk
Cricetinae gen. sp. [6] = assay: Compound was evaluated for the percent reduction in liver cholesterol ester levels in cholesterol fed hamster model at 10 mg/kg

O=C1[C@@H]([C@H](O)COc2ccc(F)cc2)[C@@H](c2ccc(O)cc2)N1c1ccc(F)cc1
L/CE (Cricetinae gen. sp. [1]): 0%

O=C1[C@H]([C@H](O)COc2ccc(F)cc2)[C@@H](c2ccc(O)cc2)N1c1ccc(F)cc1
ED50 (Cricetinae gen. sp. [2]): 0.27 MPK | L/CE (Cricetinae gen. sp. [3]): -70%

COc1ccc([C@@H]2[C@@H]([C@H](O)COc3ccc(F)cc3)C(=O)N2c2ccccc2)cc1
L/CE (Cricetinae gen. sp. [4]; 1 mg/kg): -84% | ED50 (Cricetinae gen. sp. [2]; Cricetinae gen. sp., read-out: ED50): 0.3 mg/kg

O=C1[C@H]([C@@H](O)COc2ccc(F)cc2)[C@H](c2ccc(O)cc2)N1c1ccc(F)cc1 (racemic)
L/CE (Cricetinae gen. sp. [5]): -39%

COc1ccc([C@@H]2N(c3ccccc3)C(=O)[C@]2(C)[C@@H](O)COc2ccc(F)cc2)cc1 (racemic)
L/CE (Cricetinae gen. sp. [6]): -48%

O=C1[C@H]([C@H](O)COc2ccc(F)cc2)[C@@H](c2ccc(O)cc2)N1c1ccc(F)cc1 (racemic)
L/CE (Cricetinae gen. sp. [4]): -38% | ED50 (Cricetinae gen. sp. [2]): 0.7 MPK

COc1ccc([C@@H]2[C@@H]([C@H](O)COc3ccc(F)cc3)C(=O)N2c2ccccc2)cc1 (racemic)
L/CE (Cricetinae gen. sp. [4]; 1 mg/kg): -57%
